From US20050106276A1, “Pharmaceutical composition made from Chinese traditional medecine and method of producing thereof” (Jiangsu Kanion Pharmaceutial Co. Ltd., priority 2001, published 2005)
Structures can show the parent of a compound that is named as a salt.

Experiments:
[1] = test system: experimental mice with hyperglycaemia; experiment: blood glucose value of mice with hyperglycaemia lead by Streptozocin; assay type: in vivo, mouse; details: Streptozocin mice serum
Method: 100 male mice, weighting 25˜30 g, were given Streptozocin on the dosage of 180 mg/kg by intraperitoneal injection. taking blood from eye sockets of the survivals 72 hours later, using evaluate kit evaluated serum glucose, select 40 mice with hyperglycosemia whose serum glucose value is 18˜33 mmol/L, Which were randomly divided into 4 groups: Model group, Positive medicine Phenformin group, High and low dose of invented capsule group. All mice were intragastric administration 1 time each day in 10 days; Take another 10 mice as normal control group. All mice were fasting diet 12 hours after last administration, then taking blood from eye sockets, separating blood serum, using evaluate kit evaluated serum glucose value with Glucose enzymic method, then using t-value method to compare the significance with model group.

[2] = test system: experimental rats with hyperglycaemia; experiment: blood glucose value of rats with hyperglycaemia lead by alloxan; assay type: in vivo, rat; details: alloxan rats serum
Method: 160 male rats, weighting 200˜250 g, were given alloxan on the dosage of 200 mg/kg by intraperitoneal injection. taking blood from eye sockets of the survivals 72 hours later, using evaluate kit evaluated serum glucose, select 40 rats with hyperglycosemia whose serum glucose value is 20˜25 mmol/L, Which were randomly divided into 4 groups: Model group, Positive medicine Phenformin group, High and low dose of invented capsule group. All rats were intragastric administration 1 time each day in 10 days; Take another 10 mice as normal control group. All mice were fasting diet 12 hours after last administration, then taking blood from eye sockets, separating blood serum, using evaluate kit evaluated serum glucose value with Glucose enzymic method, then using t-value method to compare the significance with model group.

[3] = 0.1 g/kg intragastric daily 10 days

SMILES: [H]/N=C(/N)N/C(=N/[H])NCCc1ccccc1 [Phenformin, Phenformin Hydrochloride]
- GLU After administration [1, 3]: 12.51 ± 6.93 mmol/L
- GLU Before administration ([1]; baseline of 0.1 g/kg group): 25.43 ± 3.93 mmol/L
- GLU After administration [2, 3]: 14.52 ± 4.99 mmol/L
- GLU Before administration ([2]; baseline of 0.1 g/kg group): 22.72 ± 1.53 mmol/L
